Key:
[1] = test system: SREBP-1; assay: Western blot of SREBP-1 processing in DU145 cells; format: cell-based, human; conditions: 6 hrs, IGF1
Protocol: To examine whether fatostatin A affects the proteolytic activation of SREBPs, whole cell lysates of DU145 cells treated with fatostatin A were analyzed by western blots with an antibody against the NH2 terminus of SREBP-1 (FIG. 3A). […] Similar results were obtained for SREBP-2 with an antibody against its COOH terminus (FIG. 3B).
DU145 prostate cancer cells were seeded on a 6-well plate at a density of 2×10^5 cells/well in a serum-free MEM incubated at 37° C. for overnight. The cells were then treated with DMSO or fatostatin A ([…]) in presence of IGF1 (1 μg/mL). After 6 hrs of incubation, the cells were harvested in PBS and lysated in an SDS buffer. The samples were separated on a 10% SDS-PAGE gel and blotted by using rabbit anti-SREBP-1 and anti-SREBP-2 antibodies. The specific bands were visualized by using enhanced chemiluminescent (ECL) detection reagents (Amersham).

[2] = target: T1, SCAP (Cricetulus griseus, UniProt P97260); assay: Binding assay, biotinylated fatostatin on Neutravidine-agarose beads, CHO-K1 membrane extract; set-up: species or system Chinese hamster; conditions: not bound: SREBP-1, SREBP-2, ATF6
T1 construct: endogenous in cells; host or cells: CHO-K1 (membrane fraction extracted with 0.1% FOS-Choline 10)
T1 sequence (P97260 1-1276): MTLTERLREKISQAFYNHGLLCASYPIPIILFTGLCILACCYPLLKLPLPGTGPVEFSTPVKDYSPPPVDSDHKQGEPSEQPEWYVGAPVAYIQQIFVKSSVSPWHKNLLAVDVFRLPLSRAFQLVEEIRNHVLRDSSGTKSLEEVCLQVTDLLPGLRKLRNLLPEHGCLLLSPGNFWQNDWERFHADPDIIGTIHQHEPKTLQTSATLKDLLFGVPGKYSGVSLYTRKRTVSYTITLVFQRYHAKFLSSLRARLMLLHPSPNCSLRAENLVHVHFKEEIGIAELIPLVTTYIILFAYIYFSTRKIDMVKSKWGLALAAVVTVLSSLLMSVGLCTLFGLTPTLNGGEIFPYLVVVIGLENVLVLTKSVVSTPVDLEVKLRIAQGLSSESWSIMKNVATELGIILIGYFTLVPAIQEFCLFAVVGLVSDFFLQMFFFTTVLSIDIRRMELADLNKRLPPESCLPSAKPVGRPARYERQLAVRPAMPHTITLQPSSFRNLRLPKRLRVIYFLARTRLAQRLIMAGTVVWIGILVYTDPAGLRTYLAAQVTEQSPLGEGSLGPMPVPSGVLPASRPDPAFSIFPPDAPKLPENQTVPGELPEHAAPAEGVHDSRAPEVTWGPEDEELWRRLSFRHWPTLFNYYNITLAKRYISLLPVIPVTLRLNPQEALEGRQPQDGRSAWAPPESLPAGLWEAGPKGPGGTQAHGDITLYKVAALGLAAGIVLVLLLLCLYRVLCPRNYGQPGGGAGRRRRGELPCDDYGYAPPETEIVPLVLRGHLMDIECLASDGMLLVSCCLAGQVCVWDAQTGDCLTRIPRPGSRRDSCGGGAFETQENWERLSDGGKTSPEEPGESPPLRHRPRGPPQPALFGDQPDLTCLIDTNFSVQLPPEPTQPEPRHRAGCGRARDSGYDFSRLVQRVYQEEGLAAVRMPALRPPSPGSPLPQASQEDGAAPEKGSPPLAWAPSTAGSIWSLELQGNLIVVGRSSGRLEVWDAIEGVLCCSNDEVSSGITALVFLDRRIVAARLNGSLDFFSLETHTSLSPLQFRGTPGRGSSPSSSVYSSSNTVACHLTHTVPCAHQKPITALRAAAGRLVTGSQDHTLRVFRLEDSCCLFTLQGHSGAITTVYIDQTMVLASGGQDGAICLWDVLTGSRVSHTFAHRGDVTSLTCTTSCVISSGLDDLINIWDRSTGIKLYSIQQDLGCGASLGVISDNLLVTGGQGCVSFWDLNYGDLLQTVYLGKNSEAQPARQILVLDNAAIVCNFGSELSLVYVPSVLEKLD
Description: The selective ER localization implies that fatostatin binds to a protein in the ER; the most likely candidate is SCAP, the target of cholesterol for the control of SREBP (Radhakrishnan et al., 2004). To test this hypothesis, proteins bound to a fatostatin-polyproline linker-biotin conjugate (FIG. 20A) (Sato et al., 2007) were purified from cell lysates and analyzed by western blots with antibodies against SCAP, SREBP-1, SREBP-2, and ATF6, an unrelated ER-bound transcription factor (Ye et al., 2000). […] The binding was lost upon addition of excess fatostatin, but not excess cholesterol (FIG. 20D), raising the possibility that fatostatin may interact with SCAP in a site distinct from that of cholesterol.
Binding assay. Cell membrane fractions were prepared as described in Supplementary Methods. The membrane fraction was extracted with PBS containing 0.1% FOS-Choline 10 (Hampton Research). The extract was mixed with Neutravidine-agarose beads (10 μL) saturated with biotinylated fatostatin and incubated for 1 h. The bound proteins were washed four times with PBS containing 0.1% FOS-Choline 10, boiled in 25 μL of SDS sample buffer, and subjected to western blotting. For the competition assay, saturated amounts of cholesterol or fatostatin were added to the membrane extract before incubating with the beads.

Compound: CCCc1cc(-c2nc(-c3ccc(C)cc3)cs2)ccn1 [Compound 1, 2-propyl-4-(4-p-tolylthiazol-2-yl)pyridine]
- amounts of mature and precursor forms of SREBP-1 (western blot) [1]: decreased the amounts of the 68 KDa mature form of SREBP-1 in a dose-dependent manner
- binding to SCAP (western blot of bound proteins) [2]: bound to SCAP
